The values that follow come from patent publication US20080051453A1, “Sorbic acid analog co-crystals” (priority 2006, published 2008).

This data set can be described thus: Pharmacokinetic parameters in male cynomolgus monkeys after nasogastric gavage (suspension) or oral (tablet) administration. The data set is classed as in vivo. As to conditions: for mean AUC relative to the suspension formulation / mean Cmax relative to the suspension formulation: oral, male cynomolgus monkeys, N=4/group. The source says:
Pharmacokinetic Parameters and Summary Statistics for Male Cynomolgus Monkeys Following Nasogastric Gavage (2% Pluronic F108 in OraPlus Suspension) or Oral (Tablet Formulations) Administration (N=4/group)

The mark [1] stands for this setting: "in situ" sorbic acid cocrystal/physical blend tablet (first mention, % CV~50-60).
Where [2] appears, read: tablet printed again as "in situ" sorbic acid cocrystal/physical blend tablet (second mention, % CV~30-45).

Regarding `CC(=O)Nc1nc2c(Oc3cc(-c4ccc(C(F)(F)F)cc4)ncn3)cccc2s1` [Example 4, N-(4-(6-(4-(trifluoromethyl)phenyl)pyrimidin-4-yloxy)benzo[d]thiazol-2-yl)acetamide freebase], for the setting “cynomolgus monkey, in vivo, po”, the “mean AUC relative to the suspension formulation of Example 4” value is given as 17-19% and the “mean Cmax relative to the suspension formulation of Example 4” value was 17-19%.

Regarding “N-(4-(6-(4-(trifluoromethyl)phenyl)pyrimidin-4-yloxy)benzo[d]thiazol-2-yl)acetamide sorbic acid co-crystal [Example 5]”, under setting [1], the “mean AUC relative to the suspension formulation” value is given as 52-63% and the “mean Cmax relative to the suspension formulation” value is recorded as 52-63%. Besides, under setting [2], the “mean AUC relative to the suspension formulation” value was “approximately 65%” and the “mean Cmax relative to the suspension formulation” value was “approximately 65%”.
